{"source": "paper PMC9705338", "about": "“The phycoerythrobilin isomerization activity of MpeV in Synechococcus sp. WH8020 is prevented by the presence of a histidine at position 141 within its phycoerythrin-I β-subunit substrate” (Frontiers in Microbiology, 2022)", "target": "T1, WHMpeV (MpeV from WH8020) (Synechococcus sp. WH 8020, UniProt Q02178)", "T1 construct": "His-tagged, in pCDF-Duet, co-expressed in E. coli with RS9916 cpeS, cpeZ, ho1/pebS and a PE beta-subunit", "T1 sequence (Q02178 1-301)": "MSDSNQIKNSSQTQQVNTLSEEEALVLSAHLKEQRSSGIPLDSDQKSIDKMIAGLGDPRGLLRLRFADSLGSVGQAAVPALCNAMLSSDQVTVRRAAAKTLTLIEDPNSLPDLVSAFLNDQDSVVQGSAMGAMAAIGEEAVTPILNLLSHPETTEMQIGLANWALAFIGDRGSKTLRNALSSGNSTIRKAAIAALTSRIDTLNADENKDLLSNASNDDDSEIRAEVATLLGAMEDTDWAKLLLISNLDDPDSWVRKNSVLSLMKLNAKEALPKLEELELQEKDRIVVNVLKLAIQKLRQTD", "assay": "co-expression in E. coli; absorbance, zinc fluorescence, LC-MS-MS of the product subunit", "type": "cell-based", "data": [{"compound": "C=CC1=C(C)C(CC2=NC(=Cc3[nH]c(C=C4NC(=O)C(C)C4=CC)c(C)c3CCC(=O)O)C(CCC(=O)O)=C2C)NC1=O", "note": "(centres unmarked) [phycoerythrobilin]", "values": [{"measurement": "co-expression in E. coli; absorbance, zinc fluorescence, LC-MS-MS of the product", "setting": "bilin acceptor WHCpeB (ligation without isomerization), RSCpeB or WHMpeB (ligation with isomerization), with RSCpeZ and RSCpeS", "result": "WHMpeV acts as a PEB lyase-isomerase, doubly ligating PUB on RSCpeB"}]}, {"compound": "C=CC1=C(C)[C@@H](CC2=N/C(=C\\c3[nH]c(C[C@H]4NC(=O)C(C)=C4C=C)c(C)c3CCC(=O)O)C(CCC(=O)O)=C2C)NC1=O", "note": "[phycourobilin]", "values": [{"measurement": "co-expression in E. coli; absorbance, zinc fluorescence, LC-MS-MS of the product", "setting": "covalent, protein-bound product on RSCpeB, WHMpeB and WHCpeB H141L", "result": "WHMpeV is capable of isomerizing activity on both WHMpeB and RSCpeB"}]}]}
